Test results as given in US20210322327A1, “EXTRACELLULAR VESICLES COMPRISING STING-AGONIST” (Codiak BioSciences, Inc., priority 2018, published 2021).

What was measured:
[1] = system: B16F10 murine melanoma cells; assay: Advanced B16F10 melanoma tumor growth; assay type: in vivo, C57BL/6 mice; settings: days 10, 13, 16
Protocol: Treatment was started when tumor volume reached ˜ 50 mm3. To test the activity in advanced tumor, C57BL/6 mice were inoculated subcutaneously with 1×10^6 B16F10 murine melanoma cells (n=5 mice per group) and waited until tumor volume reached ˜100 mm^3. Ten, thirteen, and sixteen days post-inoculation, the mice were injected intratumorally with exosomes, 30 μg of free 3-3 cAIMPdFSH, 0.3 μg of free 3-3 cAIMPdFSH, 0.1 μg of 3-3 cAIMPdFSH loaded in PTGFRN-overexpressing exosomes, or 0.3 μg of 3-3 cAIMPdFSH loaded in PTGFRN-overexpressing exosomes. Tumor volumes were measured daily until day 28, and animals were sacrificed when tumor volume reached 2000 mm^3.

[2] = system: human peripheral blood mononuclear cells (PBMCs); assay: IFNβ production in PBMCs treated with exosome-encapsulated or free STING agonist; assay type: cell-based; settings: free STING agonists, human PBMCs overnight
Protocol: Exosome-encapsulated STING agonist and free STING agonist were tested for activity in human peripheral blood mononuclear cells (PBMCs). PBMCs were isolated from fresh human blood by centrifugation over a layer of Lymphoprep at 1000×g for 15 minutes. The resulting buffy coat was washed in PBS and counted. PBMCs were plated in 96-well U-bottom plates. Titrations of the exosome-encapsulated (Exo-STING agonist) or free STING agonist were prepared in a separate U-bottom plate to perform dose-response studies. The exosome-encapsulated or free STING agonist was added to the PBMCs and incubated at 37° C. overnight. General activation of PBMCs by the STING agonist was detected by measuring the amount of IFNβ in the supernatant. […] To understand which cell types in PBMCs are differentially affected by Exo-STING agonist, monocyte and dendritic cell activation was measured. […] Monocytes were robustly activated by the STING agonist alone with over 90% becoming activated at micromolar concentrations of the agonist. […]
HEK293SF cells overexpressing PTGFRN were grown in shake flasks and the resulting exosomes were purified by Optiprep™ density gradient ultracentrifugation as described in the Methods. […] Loading was quantified as described in Example 1. […] Activation of PBMCs by the STING agonists was detected by measuring the amount of IFNβ in the supernatant. […]

[3] = Tumor pharmacokinetics after intratumoral injection; assay type: in vivo, C57BL/6 mice; settings: B16F10 tumor
Protocol: To examine the tumor pharmacokinetics of STING agonist, C57BL/6 mice were inoculated subcutaneously with 1×10^6 B16F10 murine melanoma cells (n=3 mice per group and time). Eight days post-inoculation, the tumors were injected intratumorally with 30 μg of free 3-3 cAIMPdFSH, 0.3 μg of free 3-3 cAIMPdFSH, or 0.3 μg 3-3 cAIMPdFSH loaded in PTGFRN-overexpressing exosomes. Five minutes, thirty minutes, two hours, 6 hours, 24 hours, and 48 hours after injection, tumors were excised and lysed with 6 volume of plasma. The concentration of 3-3 cAIMPdFSH was measured by LC-MS/MS, as described in Example 1. Free 3-3 cAIMPdFSH in both 30 μg and 0.3 μg was disappeared quickly from tumor, having half-life of around 10 minutes.

[4] = system: B16F10 cells; assay: B16F10 re-challenge on the opposite flank; assay type: in vivo, C57BL/6 mice; settings: 20 μg group, re-challenged day 21, read day 39
From the text: STING pathway activation leads to memory T-cell recruitment and ultimately a durable adaptive immune response. To determine whether the anti-tumor effects in this study led to an immune response, the five animals in the high dose STING agonist and Exo STING groups were re-challenged on day 21 by transplantation of 5×10^5 B16F10 cells on the opposite flank. Five additional naïve mice were inoculated with the same tumor cell preparation and treated daily with PBS to ensure cell viability and growth kinetics. By day 39 (18 days post-challenge) all mice in the PBS group were sacrificed.

| Compound | tumor growth compared to exosomes control ([1]; 0.3 μg free, start ~100 mm^3) | tumor burden compared to exosomes control ([1]; 30 μg free) | IFNβ induction [2] | half-life in tumor ([3]; 0.3 μg free) | half-life in tumor ([3]; 30 μg free) | animals in which re-challenge tumors failed to grow [4] |
| --- | --- | --- | --- | --- | --- | --- |
| Nc1ncnc2c1ncn2[C@@H]1O[C@@H]2COP(=O)(S)O[C@H]3[C@@H](F)[C@H](n4cnc5c(=O)[nH]cnc54)O[C@@H]3COP(O)(=S)O[C@H]2[C@H]1F (stereo partly shown) [3-3 cAIMPdFSH, 3′3′-cAIMPdFSH] | tumor growth was not affected | great reduction of tumor burden | induced IFNβ to a similar extent | around 10 minutes | around 10 minutes | – |
| Nc1ncnc2c1ncn2[C@@H]1O[C@@H]2COP(O)(=S)O[C@@H]3C(O)[C@@H](COP(O)(=S)O[C@H]2[C@H]1O)O[C@H]3n1cnc2c(N)ncnc21 (stereo partly shown) [ML RR-S2 CDA] | – | – | induced IFNβ to a similar extent | – | – | four out of 5 |
